Patent EP0003920A1, “Thieno (3,2-c)- and thieno (2,3-c)pyridines, process for their preparation and their therapeutical application” (OMNIUM FINANCIER AQUITAINE POUR L'HYGIENE ET LA SANTE - …, priority 1978, dated 1979)

Tests used:
[1] = Acute toxicity, intravenous LD50 (method of Miller and Tainter); set-up: species or system souris; conditions: mouse, in vivo, read-out: DL50/24 H/kg de poids corporel
Experimental: En ce qui concerne la toxicité aigüe, la DL50/24 H/kg de poids corporel, déterminée chez la souris selon la méthode de Miller et Tainter pour la voie orale est supérieure à 400 mg pour tous les dérivés.
Selon la même méthode, la DL50/24 H/kg de poids corporel déterminée par la vole intraveineuse est, par exemple, de 154 mg pour le dérivé N° 1, de 89 mg pour le dérivé N° 2, de 184mg pour le dérivé N° 10, de 130 mg pour le dérivé N° 11, de 350mg pour le dérivé N° 12, de 65 mg pour le dérivé N° 18, de 90 mg pour le dérivé N° 22, de 96 mg pour le dérivé N° 24 et de 105 mg pour le dérivé N° 31.

souris = test: Potentiation of an infra-hypnotic dose of sodium pentobarbital; assay type: in vivo; conditions: mouse, 100 mg/kg oral, 30 min before i.p. infra-hypnotic dose of sodium pentobarbital; control 0
Experimental: Les composés de l'invention potentialisent de façon très nette l'action des hypnotiques. En effet, administrés à différents lots de souris par la voie orale, à la dose de 100 mg/ kg, trente minutes avant l'injection intrapéritonéale d'une dose infra-hypnotique de pentobarbital sodique, ils produisent par rapport aux animaux témoins non traités, une nette poten- tialisation de l'action du barbiturique.
En effet, le nombre de souris endormies, le temps moyen d'endormissement et la durée du sommeil sont nettement accrus dans les lots traités. Les résultats des composés les plus actifs sont rassemblés dans le Tableau I suivant.

rat [2] = test: Localised carrageenan-induced oedema; assay type: in vivo; conditions: 100 mg/kg oral at -1 h, 0 h, +2.5 h
Experimental: Une solution de carragénine (0,1 ml), à 1 %, est injectée dans les fléchisseurs métatarsiens de la patte postérieure droite du rat au temps 0. Les animaux du lot traité reçoivent en outre, par la voie orale, 100 mg par kg du dérivé à tester respectivement 1 heure avant, en même temps que l'injection de l'agent phlogogène, puis 1 heure et 2 heures et demi après. Les mesures qui sont effectuées à l'aide du micromètre de ROGH au temps 0, 1 heure, 2 heures, 3 heures et 5 heures après l'administration de la carragénine permettent de déterminer, en fonction du temps, le pourcentage d'activité anti-inflammatoire, par comparaison avec le lot témoin.

rat [3] = test: Generalised ovalbumin oedema; assay type: in vivo; conditions: po, 100 mg/kg per os 1 h before and together with ovalbumin
Experimental: Une injection intrapéritonéale simultanée de 1 ml d'ovalbumine et de 0,5 ml d'une solution aqueuse de bleu Evans à 1% est effectuée sur le rat. D'autre part, on administre per os aux animaux du lot traité 100 mg/kg du dérivé à tester une heure avant et en même temps que l'ovalbumine. L'intensité du phénomène ainsi provoqué est notée par un chiffre allant de 1 à 5 suivant la progression du syndrome inflammatoire. On détermine ainsi la moyenne de l'intensité oedémateuse et le pourcentage de diminution de la réaction oedémateuse par rapport au témoin, en fonction du temps.

rat [4] = test: Anticonvulsant action against electroshock; assay type: in vivo; conditions: 100 mg/kg oral, electroshock 30 min after treatment, score 0 to 4, untreated controls 4
Experimental: Cette action a été étudiée vis-à-vis des électrochocs. L'application chez le rat d'une stimulation électrique supérieure au seuil électro-convulsivant provoque des convulsions expérimentales. On compare alors chez les animaux témoins et chez les animaux traités, à la fois la présence et la durée de chacune des phases convulsives et l'intensité de la crise dans son ensemble.
On établit des séries de 10 rats par produit à tester et on administre par la voie orale, à chaque animal, 100 mg/kg de ce produit.
De chaque côté de la base de la queue de chaque […], une électrode Cat mise en place et 30 minutes après le traitement, l'animal placé dans une enceinte de verre reçoit pendant 50 millisecondes un courant sinusoïdal de 50 périodes/secondes de 120 volts.
Le passage du courant déclenche une crise convulsive dont chacune des phases (tonique, clonique, relachement musculaire) est chronométrée. L'intensité de la crise est alors notée de 0 à 4 selon la présence de chacune des phases et leur durée. Les produits de l'invention sont testés comparativement au phénobarbital qui possède une action anti-convulsivante marquée (intensité de la crise = 2), alors que chez les animaux témoins non traités c'est l'intensité maxima de 4 qui est obtenue.

[5] = 1 h after carrageenan, read-out: Pourcentage d'activité anti-inflammatoire 1ère heure
[6] = 2 h after carrageenan, read-out: Pourcentage d'activité anti-inflammatoire 2ème heure
[7] = 3 h after carrageenan, read-out: Pourcentage d'activité anti-inflammatoire 3ème heure
[8] = 5 h after carrageenan, read-out: Pourcentage d'activité anti-inflammatoire 5ème heure
[9] = 2 h after ovalbumin injection, read-out: Pourcentage d'activité anti-inflammatoire 2ème heure
[10] = 3 h after ovalbumin injection, read-out: Pourcentage d'activité anti-inflammatoire 3ème heure

Row | Structure (SMILES) | LD50 at 24 h [1] [mg/kg] | Pourcentage d'animaux endormis (souris) [%] | inhibition in vivo at 100 mg/kg (rat [2]; [5]) [%] | inhibition in vivo at 100 mg/kg (rat [2]; [6]) [%] | inhibition in vivo at 100 mg/kg (rat [2]; [7]) [%] | inhibition in vivo at 100 mg/kg (rat [2]; [8]) [%] | inhibition in vivo at 100 mg/kg (rat [3]; [9]) [%] | inhibition in vivo at 100 mg/kg (rat [3]; [10]) [%] | valeurs moyennes de l'intensité des crises (rat [4])
1 | O=C(NCc1ccncc1)c1cc2sccc2cn1 [Dérivé 22, (pyridyl-4 méthyl)aminocarbonyl-6 thiéno[3,2-c]pyridine] | 90 | 70 | 41 | 47 | 51 | 55 | 51 | 58 | –
2 | NC(=O)c1cc2sccc2cn1 [Dérivé 31, carbamoyl-6 thiéno [3,2-C] pyridine] | 105 | – | – | – | – | – | – | – | 2,5
3 | CNC(=O)c1cc2sccc2cn1 [Dérivé 1, Méthylaminocarbonyl-6 thiéno [3,2-c] pyridine] | 154 | 70 | 35 | 42 | 46 | 47 | 48 | 56 | 2,5
4 | CCN(CC)CCNC(=O)c1cc2sccc2cn1 [Dérivé 18, β-diéthylaminoéthylaminocarbonyl-6 thiéno [3,2-c] pyridine] | 65 | 80 | 41 | 46 | 50 | 55 | 49 | 58 | –
